This note sets out measurements from patent publication US20150299188A1, “HETEROCYCLIC COMPOUND” (priority 2012, published 2015).

This assay has as its system FLAP (5-lipoxygenase activating protein). Kind of assay: In vitro binding test: displacement of [3H]-7-chloro-3-(5-((3-fluoropyridin-2-yl)methoxy)-2-methylphenyl)-3,4-dihydroquinazolin-2(1H)-one from Sf9 microsome fractions. The arrangement: species or system human and mouse. The following applies: Sf9 microsome fractions expressing FLAP; 100% = radioligand binding with 10 μM sodium 3-(3-(tert-butylsulfanyl)-1-(4-chlorobenzyl)-5-isopropyl-1H-indol-2-yl)-2,2-dimethylpropanoate, 0% = DMSO; test compound concentration not given. As to the method:
As an assay buffer, 100 mM Tris-HCl, pH 7.5, 140 mM NaCl, 2 mM EDTA, 0.5 mM dithiothreitol, 5% glycerol, 0.05% Tween20 was used. Sf9 microsome fractions expressing human and mouse FLAPs were dispensed by 50 μL to a 96-well plate at 2 μg/mL. Furthermore, a test compound (25 μL) diluted 4-fold of the final concentration with the assay buffer was added and mixed therewith, and the mixture was incubated at room temperature for 10 min. Furthermore, 120 nM [^3H]-7-chloro-3-(5-((3-fluoropyridin-2-yl)methoxy)-2-methylphenyl)-3,4-dihydroquinazolin-2(1H)-one was added by 25 μL, and mixed therewith, and the mixture was incubated at room temperature for 60 min. Thereafter, the cells were transferred to a 96-well GF/B Unifilter plate with a FilterMate cell harvester, and washed 3 times with a wash buffer (100 mM Tris-HCl pH 7.5, 0.05% Tween20, 200 μL) cooled to 4° C. The GF/B Unifilter plate was dried at 37° C., Microscint 0 was added and measured by TopCount NXT (PerkinElmer). As for the inhibitory activity, the inhibitory rate was calculated wherein the [^3H]-7-chloro-3-(5-((3-fluoropyridin-2-yl)methoxy)-2-methylphenyl)-3,4-dihydroquinazolin-2(1H)-one binding amount in the presence of 10 μM sodium 3-(3-(tert-butylsulfanyl)-1-(4-chlorobenzyl)-5-isopropyl-1H-indol-2-yl)-2,2-dimethylpropanoate was 100%, and the [^3H]-7-chloro-3-(5-((3-fluoropyridin-2-yl)methoxy)-2-methylphenyl)-3,4-dihydroquinazolin-2(1H)-one binding amount in the presence of DMSO was 0%.
With `Cc1ccc(OCc2ncccc2F)cc1-n1c(=O)[nH]c2c(Cl)cccc2c1=O` [Example 347, 8-chloro-3-(5-((3-fluoropyridin-2-yl)methoxy)-2-methylphenyl)quinazoline-2,4(1H,3H)-dione], the “inhibitory rate (%)” value worked out at 110%.
With `CCc1cc2c(c(C3CC3)n1)CN(c1cc3c(cc1C)CCC(c1ncccc1F)O3)C(=O)N2` (stereo not shown) [Example 96, 5-cyclopropyl-7-ethyl-3-(2-(3-fluoropyridin-2-yl)-6-methyl-3,4-dihydro-2H-chromen-7-yl)-3,4-dihydropyrido[4,3-d]pyrimidin-2(1H)-one] the figure was 84%.
To `COC(=O)c1ccc2c(c1)NC(=O)N(c1cc(OCc3ccc(F)cc3F)ccc1C)C2` [Example 200, methyl 3-(5-((2,4-difluorobenzyl)oxy)-2-methylphenyl)-2-oxo-1,2,3,4-tetrahydroquinazoline-7-carboxylate] belongs 100%; to `Cc1cc2c(cc1N1Cc3cnccc3NC1=O)OC(c1ncccc1F)CC2` (stereo not shown) [Example 29, 3-(2-(3-fluoropyridin-2-yl)-6-methyl-3,4-dihydro-2H-chromen-7-yl)-3,4-dihydropyrido[4,3-d]pyrimidin-2(1H)-one], 99%.
For the compound `Cc1cc2c(cc1N1Cc3c(ccnc3C(C)(C)O)NC1=O)OC(c1ncccc1F)CC2` (stereo not shown) [Example 33, 3-(2-(3-fluoropyridin-2-yl)-6-methyl-3,4-dihydro-2H-chromen-7-yl)-5-(2-hydroxypropan-2-yl)-3,4-dihydropyrido[4,3-d]pyrimidin-2(1H)-one], the “inhibitory rate (%)” value turned out to be 106%.
To `Cc1ccc(OCc2ncccc2F)cc1N1Cc2c(ccnc2C2CC2)NC1=O` [Example 320, 5-cyclopropyl-3-(5-((3-fluoropyridin-2-yl)methoxy)-2-methylphenyl)-3,4-dihydropyrido[4,3-d]pyrimidin-2(1H)-one] belongs 101%.
With `O=C1Nc2ccnc(Cl)c2CN1c1cc2c(cc1Cl)CCC(c1ncccc1F)O2` (racemic) [Example 1, 5-chloro-3-(6-chloro-2-(3-fluoropyridin-2-yl)-3,4-dihydro-2H-chromen-7-yl)-3,4-dihydropyrido[4,3-d]pyrimidin-2(1H)-one] the figure was 94%; with `Cn1cc(-c2ncc(F)c3c2NC(=O)N(c2cc4c(cc2Cl)CCC(c2ncccc2F)O4)C3)cn1` (stereo not shown) [Example 169, 3-(6-chloro-2-(3-fluoropyridin-2-yl)-3,4-dihydro-2H-chromen-7-yl)-5-fluoro-8-(1-methyl-1H-pyrazol-4-yl)-3,4-dihydropyrido[3,4-d]pyrimidin-2(1H)-one], 92%.
To `Cc1cc2c(cc1N1Cc3c(Cl)ncnc3NC1=O)OC(c1ncccc1F)CC2` (stereo not shown) [Example 37, 5-chloro-3-(2-(3-fluoropyridin-2-yl)-6-methyl-3,4-dihydro-2H-chromen-7-yl)-3,4-dihydropyrimido[4,5-d]pyrimidin-2(1H)-one] belongs 107%; to `COC(=O)c1ccc(OCc2ncccc2F)cc1N1Cc2ccccc2NC1=O` [Example 219, methyl 4-((3-fluoropyridin-2-yl)methoxy)-2-(2-oxo-1,4-dihydroquinazolin-3(2H)-yl)benzoate], 106%; to `O=C(NC1COC1)c1cc2c(c(C3CC3)n1)CN(c1cc3c(cc1Cl)CCC(c1ncccc1F)O3)C(=O)N2` (stereo not shown) [Example 98, 3-(6-chloro-2-(3-fluoropyridin-2-yl)-3,4-dihydro-2H-chromen-7-yl)-5-cyclopropyl-N-(oxetan-3-yl)-2-oxo-1,2,3,4-tetrahydropyrido[4,3-d]pyrimidine-7-carboxamide], 94%.
As for `O=C1Nc2cc(CO)ccc2CN1c1cc(OCc2c(F)cccc2F)ccc1C(F)(F)F` [Example 239, 3-(5-((2,6-difluorobenzyl)oxy)-2-(trifluoromethyl)phenyl)-7-(hydroxymethyl)-3,4-dihydroquinazolin-2(1H)-one], the “inhibitory rate (%)” value is recorded as 86%.
To `COc1nccc2c1CN(c1cc(OCc3ncccc3F)ccc1C)C(=O)N2` [Example 307, 3-(5-((3-fluoropyridin-2-yl)methoxy)-2-methylphenyl)-5-methoxy-3,4-dihydropyrido[4,3-d]pyrimidin-2(1H)-one] belongs 100%; to `Cc1ccc(OCc2c(F)cccc2F)cc1N1Cc2c(cccc2C(C)(C)O)NC1=O` [Example 202, 3-(5-((2,6-difluorobenzyl)oxy)-2-methylphenyl)-5-(2-hydroxypropan-2-yl)-3,4-dihydroquinazolin-2(1H)-one], 72%; to `Cc1nc(COc2ccc(C)c(N3Cc4ccc(C(C)(C)O)cc4NC3=O)c2)cs1` [Example 226, 7-(2-hydroxypropan-2-yl)-3-(2-methyl-5-((2-methyl-1,3-thiazol-4-yl)methoxy)phenyl)-3,4-dihydroquinazolin-2(1H)-one], 52%.
With `CC(C)(O)c1cc2c(c(C3CC3)n1)CN(c1cc3c(cc1Cl)CCC(c1ncccc1F)O3)C(=O)N2` (stereo not shown) [Example 75, 3-(6-chloro-2-(3-fluoropyridin-2-yl)-3,4-dihydro-2H-chromen-7-yl)-5-cyclopropyl-7-(2-hydroxypropan-2-yl)-3,4-dihydropyrido[4,3-d]pyrimidin-2(1H)-one] the figure was 103%; with `O=C1Nc2cc(-c3n[nH]c(=O)o3)nc(C3CC3)c2CN1c1cc2c(cc1Cl)CCC(c1ncccc1F)O2` (stereo not shown) [Example 117, 3-(6-chloro-2-(3-fluoropyridin-2-yl)-3,4-dihydro-2H-chromen-7-yl)-5-cyclopropyl-7-(5-oxo-4,5-dihydro-1,3,4-oxadiazol-2-yl)-3,4-dihydropyrido[4,3-d]pyrimidin-2(1H)-one], 106%; with `Cc1cc2c(cc1N1Cc3c(cc(CCC(=O)O)nc3C3CC3)NC1=O)OC(c1ncccc1F)CC2` (stereo not shown) [Example 94, 3-(5-cyclopropyl-3-(2-(3-fluoropyridin-2-yl)-6-methyl-3,4-dihydro-2H-chromen-7-yl)-2-oxo-1,2,3,4-tetrahydropyrido[4,3-d]pyrimidin-7-yl)propanoic acid], 104%.
With `Cc1cnn(-c2cc3c(c(C4CC4)n2)CN(c2cc4c(cc2C)CCC(c2ncccc2F)O4)C(=O)N3)c1` (stereo not shown) [Example 133, 5-cyclopropyl-3-(2-(3-fluoropyridin-2-yl)-6-methyl-3,4-dihydro-2H-chromen-7-yl)-7-(4-methyl-1H-pyrazol-1-yl)-3,4-dihydropyrido[4,3-d]pyrimidin-2(1H)-one] the figure was 100%.
`Cc1cc2c(cc1N1Cc3c(cc(Cl)nc3Cl)NC1=O)OC(c1ncccc1F)CC2` (stereo not shown) [Example 41, 5,7-dichloro-3-(2-(3-fluoropyridin-2-yl)-6-methyl-3,4-dihydro-2H-chromen-7-yl)-3,4-dihydropyrido[4,3-d]pyrimidin-2(1H)-one]: the “inhibitory rate (%)” value is 108%.
With `Cc1ccc(OCc2ncccc2F)cc1N1Cc2cnccc2NC1=O` [Example 268, 3-(5-((3-fluoropyridin-2-yl)methoxy)-2-methylphenyl)-3,4-dihydropyrido[4,3-d]pyrimidin-2(1H)-one] the figure was 83%; with `O=C1Nc2cc(CO)ccc2CN1c1cc(OCc2c(F)cccc2F)ccc1CCc1ccccc1` [Example 257, 3-(5-((2,6-difluorobenzyl)oxy)-2-(2-phenylethyl)phenyl)-7-(hydroxymethyl)-3,4-dihydroquinazolin-2(1H)-one], 97%.
